Reference: patent US20060148858A1, “1, 2-Azole derivatives with hypoglycemic and hypolipidemic activity” (priority 2002, published 2006)
Read-outs that look alike come from different tables or passages of the source.

Columns and labels:
[1] = target: T1, PPARδ-RXRα heterodimer (Homo sapiens, UniProt Q03181); test: PPARδ-RXRα heterodimer ligand activity, luciferase reporter in COS-1 transformant (Test Example 4); format: cell-based; conditions: COS-1 transformant (hPPARδ, hRXRα, reporter), 36-48 hours, concentration for 50% of the maximum fold induction
T1 construct: expressed in transfected cells; host or cells: COS-1
T1 sequence (Q03181 1-441): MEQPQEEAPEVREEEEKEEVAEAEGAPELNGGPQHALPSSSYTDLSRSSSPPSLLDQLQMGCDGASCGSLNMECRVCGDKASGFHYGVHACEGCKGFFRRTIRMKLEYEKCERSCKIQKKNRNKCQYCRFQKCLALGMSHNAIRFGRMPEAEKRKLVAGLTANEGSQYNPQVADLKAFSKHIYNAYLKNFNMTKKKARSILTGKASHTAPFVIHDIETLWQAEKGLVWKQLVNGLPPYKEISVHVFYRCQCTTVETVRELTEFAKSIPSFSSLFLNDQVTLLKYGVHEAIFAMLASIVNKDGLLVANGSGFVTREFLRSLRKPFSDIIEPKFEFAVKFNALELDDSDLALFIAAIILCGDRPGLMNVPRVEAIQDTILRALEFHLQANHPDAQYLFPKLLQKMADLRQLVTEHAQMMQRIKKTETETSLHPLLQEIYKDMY
T1 sequence (P19793 1-462 partner): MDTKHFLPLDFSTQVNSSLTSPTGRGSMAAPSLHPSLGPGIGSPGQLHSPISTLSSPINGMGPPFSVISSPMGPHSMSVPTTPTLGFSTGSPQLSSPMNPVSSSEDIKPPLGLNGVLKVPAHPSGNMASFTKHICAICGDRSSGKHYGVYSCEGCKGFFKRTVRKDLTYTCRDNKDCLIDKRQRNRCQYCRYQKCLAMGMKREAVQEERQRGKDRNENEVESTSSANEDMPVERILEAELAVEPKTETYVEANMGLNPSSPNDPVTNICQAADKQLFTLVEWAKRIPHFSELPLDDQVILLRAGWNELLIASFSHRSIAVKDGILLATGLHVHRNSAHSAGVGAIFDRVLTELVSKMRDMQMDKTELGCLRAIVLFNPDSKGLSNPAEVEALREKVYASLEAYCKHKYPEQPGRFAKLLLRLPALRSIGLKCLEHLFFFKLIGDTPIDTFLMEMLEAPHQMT
Method: The transformant obtained in Reference Example 9a was suspended in DMEM medium (produced by Life Technologies, Inc., USA) containing 0.1% fatty acid-free bovine serum albumin (BSA) (produced by Wako Pure Chemical Industries, Ltd.), and inoculate to each well of a 96-well white plate (produced by Corning Costar Corporation, USA) by 80 μl at 1×10^4 cells/well. Then the test compound (20 μl) was added and cultured at 37° C. under 5% CO2 for 36-48 hours. After removing the medium from the 96-well white plate, 40 μl of PIKKAGENE LT 7.5 (produced by Wako Pure Chemical Industries, Ltd.) diluted twice with HBSS (HANKS' BALANCED SALT SOLUTION)(produced by BIO WHITTAKER Inc., USA), was added. After stirring, the luciferase activity was determined using 1420 ARVO Multilabel Counter (produced by PerkinElmer Inc., USA).
A fold induction was calculated based on the luciferase activity of each test compound by taking the luciferase activity in the non-treatment group as 1. The values of the test compound concentration and the fold induction were analyzed using PRISM (produced by GraphPad Software Inc. USA) to calculate the EC50 values, the effective concentration of a test compound for 50% of the maximum fold induction.
COS-1 cells were inoculated to a 150 cm^2 cell culture flask (produced by Corning Costar Corporation, USA) at the density of 5×10^6 cells/50 ml, and cultured at 37° C. under 5% CO2 conditions for 24 hours. Subsequently, a DNA was introduced into the cell under the condition shown below using Lipofectamine (produced by Invitrogen, USA).
First, Lipofectamine (125 μl), PLUS Reagent (100 μl, produced by Invitrogen, USA), plasmid pMCMVneo-hPPARδ (2.5 μg) obtained in Reference Example 3a, plasmid pMCMVneo-hRXRα (2.5 μg) obtained in Reference Example 4a and reporter plasmid pGL3-4ERPP-TK neo (5 μg) obtained in Reference Example 5a, and pRL-tk (5 μg, produced by Promega, USA) were mixed with opti-MEM (5 ml, produced by Invitrogen, USA) to give a transfection mixture.
Then, the above-mentioned transfection mixture and opti-MEM (20 ml) were added to COS-1 cells washed with opti-MEM, and the cells were cultured at 37° C. under 5% CO2 conditions for 3 hours. DMEM medium (25 ml, produced by Life Technologies, Inc., USA) containing 0.1% fatty acid-free bovine serum albumin (BSA) (produced by Wako Pure Chemical Industries, Ltd.) was added to the obtained COS-1 cells, and the cells were cultured at 37° C. under 5% CO2 conditions for 18-24 hours to give a transformant.

[2] = system: KKAY mice; test: Hypoglycemic and hypolipidemic actions in mice (Test Example 1); format: in vivo; conditions: Mus musculus, po, 96 h, 0.005% in powdery diet, four days, non-treated group taken as 100%
Method: Test compounds were mixed in a powdery diet (CE-2, Japan Clea) at the concentration of 0.005%, and freely given to KKAY mice (9 to 12 weeks old, 5 mice in a group), a model of obese and non-insulin dependent diabetes (type 2 diabetes), for four days. During this period, water was given freely. Blood was sampled from orbital venous plexus, and glucose and triglyceride levels in plasma separated from blood were determined enzymatically using L type Wako Glu2 (Wako Pure Chemical Industries, Ltd.) or L type Wako TG·H (Wako Pure Chemical Industries, Ltd.), respectively.
In the table, “hypoglycemic action (%)” means the rate of decrease (%) in the blood glucose level of the treated group when the blood glucose level of the non-treated group is taken as 100%. In addition, the “hypolipidemic action (%)” means the rate of decrease (%) in the blood triglyceride level of the treated group when the blood triglyceride level of the non-treated group is taken as 100%.

[3] = rate of decrease in blood glucose level, read-out: Hypoglycemic action (%)
[4] = rate of decrease in blood triglyceride level, read-out: Hypolipidemic action (%)

With CCCc1nn(-c2ccc(C(F)(F)F)cn2)cc1CCCOc1cccc(CC(=O)O)c1 [Example 44, [3-(3-{3-propyl-1-[5-(trifluoromethyl)-2-pyridyl]-1H-pyrazol-4-yl}propoxy)phenyl]acetic acid] as the compound, how does the melting point read?
The melting point was 106 to 107 °C.

What about the EC50 [1] of the same compound?
Its EC50 is 3.9 nM.

Which results are given for CCCc1nn(-c2ccc(C(F)(F)F)cn2)cc1CCCOc1ccc(CC(=O)O)cc1 [Example 46, [4-(3-{3-propyl-1-[5-(trifluoromethyl)-2-pyridyl]-1H-pyrazol-4-yl}propoxy)phenyl]acetic acid]?
melting point: 101 to 102 °C; EC50 [1]: 6.4 nM

Which results are given for CC(C)c1nn(-c2ccc(C(F)(F)F)cn2)cc1CCCCOc1cc(CCC(=O)O)n(-c2ccccc2)n1 [Example 49, 3-[3-(4-{3-isopropyl-1-[5-(trifluoromethyl)-2-pyridinyl]-1H-pyrazol-4-yl}butoxy)-1-phenyl-1H-pyrazol-5-yl]propanoic acid]?
melting point: 137 to 138 °C; EC50 [1]: 1.7 nM

Which EC50 [1] does the source give for CC(C)c1nn(-c2ccc(C(F)(F)F)cn2)cc1CCCCOc1cccc(CC(=O)O)c1 [Example 51, [3-(4-{3-isopropyl-1-[5-(trifluoromethyl)-2-pyridinyl]-1H-pyrazol-4-yl}butoxy)phenyl]acetic acid] here?
Its EC50 is 3.9 nM.

For CCOc1nn(-c2ccc(C(F)(F)F)cn2)cc1CCOc1cc(CCC(=O)O)n(-c2ccccc2)n1 [Example 56, 3-[3-(2-{3-ethoxy-1-[5-(trifluoromethyl)-2-pyridinyl]-1H-pyrazol-4-yl}ethoxy)-1-phenyl-1H-pyrazol-5-yl]propanoic acid], which melting point is on record?
Its melting point is 155 to 156 °C.

What about the EC50 [1] of the same compound?
Its EC50 is 2.8 nM.

Which results are given for CCCc1nn(-c2ccc(C(F)(F)F)cn2)cc1CCCCOc1cccc(CC(=O)O)c1 [Example 59, [3-(4-{3-propyl-1-[5-(trifluoromethyl)-2-pyridinyl]-1H-pyrazol-4-yl}butoxy)phenyl]acetic acid]?
melting point: 96 to 97 °C; EC50 [1]: 9.7 nM

Which melting point does the source give for CCOc1nn(-c2ccc(C(F)(F)F)cn2)cc1CCOc1cccc(CC(=O)O)c1 [Example 62, [3-(2-{3-ethoxy-1-[5-(trifluoromethyl)-2-pyridinyl]-1H-pyrazol-4-yl}ethoxy)phenyl]acetic acid] here?
Its melting point is 128 to 130 °C.

And the EC50 [1]?
Its EC50 is 0.81 nM.

For CCCc1nn(-c2ccc(C(F)(F)F)cn2)cc1CCCCOc1cc(CC(=O)O)ccc1OC [Example 63, [4-methoxy-3-(4-{3-propyl-1-[5-(trifluoromethyl)-2-pyridinyl]-1H-pyrazol-4-yl}butoxy)phenyl]acetic acid], which melting point is on record?
Its melting point is 147 to 148 °C.

And the EC50 [1]?
Its EC50 is 9.5 nM.

With CCCc1nn(-c2ccc(C(F)(F)F)cn2)cc1CCCOc1ccc(CCC(=O)O)c(C)c1 [Example 65, 3-[2-methyl-4-(3-{3-propyl-1-[5-(trifluoromethyl)-2-pyridinyl]-1H-pyrazol-4-yl}propoxy)phenyl]propanoic acid] as the compound, how does the melting point read?
Its melting point is 124 to 126 °C.

And the EC50 [1]?
Its EC50 is 1.8 nM.

For CCOc1nn(-c2ccc(C(F)(F)F)cn2)cc1CCOc1ccc(CCC(=O)O)c(OC)c1 [Example 75, 3-[4-(2-{3-ethoxy-1-[5-(trifluoromethyl)-2-pyridinyl]-1H-pyrazol-4-yl}ethoxy)-2-methoxyphenyl]propanoic acid], which melting point is on record?
The melting point was 147 to 148 °C.

And the EC50 [1]?
The EC50 was 3.8 nM.

With CCOc1nn(-c2ccc(C(F)(F)F)cn2)cc1CCOc1ccc(CCC(=O)O)c(C)c1 [Example 76, 3-[4-(2-{3-ethoxy-1-[5-(trifluoromethyl)-2-pyridinyl]-1H-pyrazol-4-yl}ethoxy)-2-methylphenyl]propanoic acid] as the compound, how does the melting point read?
Its melting point is 117 to 119 °C.

What about the EC50 [1] of the same compound?
The EC50 was 1.9 nM.

With CCOc1nn(-c2ccc(C(F)(F)F)cn2)cc1CCCOc1ccc(CCC(=O)O)c(OC)c1 [Example 85, 3-[4-(3-{3-ethoxy-1-[5-(trifluoromethyl)-2-pyridyl]-1H-pyrazol-4-yl}propoxy)-2-methoxyphenyl]propionic acid] as the compound, how does the melting point read?
Its melting point is 120 to 121 °C.

What about the EC50 [1] of the same compound?
Its EC50 is 6 nM.

Which melting point does the source give for COc1cccc(CC(=O)O)c1OCCCc1cn(-c2ncc(C(F)(F)F)cc2Cl)nc1C(C)C [Example 217, [2-(3-{1-[3-chloro-5-(trifluoromethyl)-2-pyridyl]-3-isopropyl-1H-pyrazol-4-yl}propoxy)-3-methoxyphenyl]acetic acid] here?
The melting point was 96 to 97 °C.

And the inhibition in vivo at 0.005 % in diet [2, 3]?
Its inhibition in vivo at 0.005 % in diet is 34%.

What about the inhibition in vivo at 0.005 % in diet [2, 4] of the same compound?
Its inhibition in vivo at 0.005 % in diet is 18%.

With CCCC(C)c1nn(-c2ccc(C(F)(F)F)cn2)cc1CCCOc1c(C)cccc1CC(=O)O (centres unmarked) [Example 222, [3-methyl-2-(3-{3-(1-methylbutyl)-1-[5-(trifluoromethyl)-2-pyridyl]-1H-pyrazol-4-yl}propoxy)phenyl]acetic acid] as the compound, how does the melting point read?
The melting point was 147 to 148 °C.

And the inhibition in vivo at 0.005 % in diet [2, 3]?
Its inhibition in vivo at 0.005 % in diet is 36%.

What about the inhibition in vivo at 0.005 % in diet [2, 4] of the same compound?
The inhibition in vivo at 0.005 % in diet was 54%.

Which melting point does the source give for CCc1cccc(CC(=O)O)c1OCCCc1cn(-c2ccc(C(F)(F)F)cn2)nc1C(CC)CC [Example 241, [3-ethyl-2-(3-{3-(1-ethylpropyl)-1-[5-(trifluoromethyl)-2-pyridinyl]-1H-pyrazol-4-yl}propoxy)phenyl]acetic acid] here?
Its melting point is 130 to 131 °C.

What about the inhibition in vivo at 0.005 % in diet [2, 3] of the same compound?
Its inhibition in vivo at 0.005 % in diet is 38%.

What about the inhibition in vivo at 0.005 % in diet [2, 4] of the same compound?
The inhibition in vivo at 0.005 % in diet was 27%.

For CCc1cccc(CC(=O)O)c1OCCCc1cn(-c2ccc(Br)cn2)nc1C(C)C [Example 247, (2-{3-[1-(5-bromo-2-pyridinyl)-3-isopropyl-1H-pyrazol-4-yl]propoxy}-3-ethylphenyl)acetic acid], which melting point is on record?
The melting point was 152 °C.

And the inhibition in vivo at 0.005 % in diet [2, 3]?
Its inhibition in vivo at 0.005 % in diet is 25%.

And the inhibition in vivo at 0.005 % in diet [2, 4]?
Its inhibition in vivo at 0.005 % in diet is 34%.

With “calcium 2-[3-(3-{3-ethoxy-1-[4-(trifluoromethyl)phenyl]-1H-pyrazol-4-yl}propoxy)phenoxy]-2-methylpropanoate [Example 105]” as the compound, how does the EC50 [1] read?
Its EC50 is 7.2 nM.

Which EC50 [1] does the source give for “calcium 2-[3-(4-{3-ethoxy-1-[5-(trifluoromethyl)-2-pyridinyl]-1H-pyrazol-4-yl}butoxy)phenoxy]-2-methylpropanoate [Example 102]” here?
The EC50 was 9.1 nM.

Which EC50 [1] does the source give for “calcium 3-[3-ethoxy-1-(4-{3-ethoxy-1-[5-(trifluoromethyl)-2-pyridinyl]-1H-pyrazol-4-yl}butyl)-1H-pyrazol-4-yl]propanoate [Example 110]” here?
Its EC50 is 4.6 nM.
